Source: publication PMC8225959, “Clickable Radiocomplexes With Trivalent Radiometals for Cancer Theranostics: In vitro and in vivo Studies” (Frontiers in Medicine, 2021)

How the values were obtained:
[1] = Biodistribution of [111In]In-radiocomplexes in healthy mice; type: in vivo
Experimental: We performed a biodistribution study of the four [^111In]In-radiocomplexes in healthy mice to determine the clearance rate from systemic blood circulation and the tissue/organ distribution over time. […] The urinary tract was identified as the main excretory pathway since the highest % I.D./g values were found in the kidneys for all the radiocomplexes, associated to rapid radioactivity excretion both at 15 min and 1 h p.i. […] page 9: from whole animal body. Blood samples were taken by cardiac puncture at sacrifice. […] The animals were kept under […] volume of approximate 390 ± 190 mm3. […] […] carried out on groups of 8 mice (n = 4). […] The animals were weighed and dissected.

in vivo = settings: male, NodCB17 SCID, mouse, iv, 0.061 nmol, total radioactivity
Description: Searching for a preliminary proof of concept of the intended pre-targeting approach, we synthesized a clickable TCO-containing bombesin antagonist (TCO-PEG4-AR) based on the potent GRPr antagonist AR reported in the literature, as described in the Supplementary Material ([29]). We hypothesized that the antagonist, when bound to the surface of human PC3 cells, would be available for the in vivo click reaction with the Tz-containing radiocomplex. As a control, the biodistribution data of the preformed [^90Y]Y-DOTA-Tz-TCO-PEG4-AR in PC3-xenografts bearing mice at 15 min and 1 h p.i. are available in Supplementary Table 5. For the pre-targeting approach, the tumor-bearing mice were injected with 1 nmol of the clickable bombesin antagonist and, after 4 h, we injected the radiocomplex [^90Y]Y-DOTA-Tz. […] In parallel, pre-targeting experiments based on ex-vivo biodistribution studies were performed in the same way for the congener [^111In]In-DOTA-Tz, and using the same animal model. […]
from whole animal body. Blood samples were taken by cardiac puncture at sacrifice. Tissue samples of the main organs were then dissected, weighted and counted in a gamma counter (Berthold).
Biodistribution results were expressed as percentage of the injected dose per gram tissue (%I.D./g) in the form of an average with standard deviation (%ID/g; mean ± standard deviation (SD).
Biodistribution in PC3 bearing mice
Male, 5-6 weeks old NodCB17 SCID mice were obtained from Janvier Lab., France. Mice were housed under pathogen-free conditions with food and water ad libitum, and a 12-12 hour light-dark cycle.
Veterinarian staff and investigators observed the mice daily to ensure animal welfare and determine if human endpoints (e.g., hunched and ruffled appearance, apathy, ulceration, severe weight loss, tumour burden) were reached. The mice were subcutaneously injected in the shoulder with 200 µL bolus containing a suspension of […] freshly harvested human prostatic cell line PC3 in Matrigel™ Basement Membrane Matrix (BD Sciences) under anaesthesia with 2% isoflurane. The animals were kept under pathogen-free condition and experiments were performed 2–3 weeks later when a tumour reached a volume of approximate 390 ± 190 mm3. Animals were allocated into treatment groups using a complete […]
The examination of physiological distribution for [90Y]Y-DOTA-Tz were carried out on 4 mice (n = 4). For the control bolus, 0.061 nmol, 0.1 mL, 7.5 µCi of [90Y]Y-DOTA-Tz was intravenously injected by tail vein. The examination of physiological distribution for [90Y]Y-DOTA-Tz-TCO-PEG4-AR were carried out on groups of 8 mice (n = 4). For the control bolus, 0.061 nmo l, 0.1 mL, 7.5 µCi of 90Y-DOTA-Tz TCO-PEG4-AR was intravenously injected by tail vein. At appropriate time points (15 min, 1h or 2h after-injection), the animals were euthanized, tissues of interest were dissected, weighted, and […]

O=C([O-])CN1CCN(CC(=O)[O-])CCN(C(CCC(=O)NCCOCCOCCOCCOCCOCCOCCOCCOCCOCCOCCOCCNC(=O)CCCC(=O)NCc2ccc(-c3nncnn3)cc2)C(=O)[O-])CCN(CC(=O)[O-])CC1.[111In+3] (stereo not shown) [[111In]In-DOTAGA-PEG-Tz]
Biodistribution: Blood ([1]; 15 min p.i.): 3.7 ± 0.6 % I.D./g | Biodistribution: Bone ([1]; 15 min p.i.): 0.8 ± 0.2 % I.D./g | Biodistribution: Heart ([1]; 15 min p.i.): 1.2 ± 0.6 % I.D./g | Biodistribution: Intestine ([1]; 15 min p.i.): 0.31 ± 0.05 % I.D./g | Biodistribution: Kidney ([1]; 15 min p.i.): 4.8 ± 0.7 % I.D./g | Biodistribution: Liver ([1]; 15 min p.i.): 0.8 ± 0.1 % I.D./g | Biodistribution: Lung ([1]; 15 min p.i.): 1.4 ± 0.2 % I.D./g | Biodistribution: Muscle ([1]; 15 min p.i.): 0.86 ± 0.07 % I.D./g | Biodistribution: Pancreas ([1]; 15 min p.i.): 0.53 ± 0.05 % I.D./g | Biodistribution: Spleen ([1]; 15 min p.i.): 0.6 ± 0.2 % I.D./g | Biodistribution: Stomach ([1]; 15 min p.i.): 1.0 ± 0.5 % I.D./g | Excretion ([1]; 15 min p.i.): 62.7 ± 2.6 % I.D. | Biodistribution: Blood ([1]; 1 h p.i.): 0.7 ± 0.4 % I.D./g | Biodistribution: Bone ([1]; 1 h p.i.): 0.17 ± 0.09 % I.D./g | Biodistribution: Heart ([1]; 1 h p.i.): 0.13 ± 0.08 % I.D./g | Biodistribution: Intestine ([1]; 1 h p.i.): 0.4 ± 0.2 % I.D./g | Biodistribution: Kidney ([1]; 1 h p.i.): 2.2 ± 0.6 % I.D./g | Biodistribution: Liver ([1]; 1 h p.i.): 0.3 ± 0.2 % I.D./g | Biodistribution: Lung ([1]; 1 h p.i.): 0.3 ± 0.2 % I.D./g | Biodistribution: Muscle ([1]; 1 h p.i.): 0.2 ± 0.1 % I.D./g | Biodistribution: Pancreas ([1]; 1 h p.i.): 0.12 ± 0.07 % I.D./g | Biodistribution: Spleen ([1]; 1 h p.i.): 0.11 ± 0.05 % I.D./g | Biodistribution: Stomach ([1]; 1 h p.i.): 1.1 ± 0.8 % I.D./g | Excretion ([1]; 1 h p.i.): 87.1 ± 6.9 % I.D.

CC(C)C[C@H](NC(=O)C[C@H](O)[C@H](CC(C)C)NC(=O)[C@H](Cc1c[nH]cn1)NC(=O)CNC(=O)[C@@H](NC(=O)[C@H](C)NC(=O)[C@H](Cc1c[nH]c2ccccc12)NC(=O)[C@H](CCC(N)=O)NC(=O)[C@@H](Cc1ccccc1)NC(=O)CCOCCOCCOCCOCCNC(=O)OC1CCCC2=CNN=C(c3ccc(CNC(=O)CN4CCN(CC(=O)O)CCN(CC(=O)O)CCN(CC(=O)O)CC4)cc3)C2CC1)C(C)C)C(N)=O (stereo partly shown) [[90Y]Y-DOTA-Tz-TCO-PEG4-AR, metal not drawn]
tissue uptake at 0.25 h (in vivo; blood): 14.9 ± 3.89 %ID/g | tissue uptake at 1 h (in vivo; blood): 2.65 ± 0.65 %ID/g | tissue uptake at 0.25 h (in vivo; bone): 3.15 ± 1.87 %ID/g | tissue uptake at 1 h (in vivo; bone): 0.7 ± 0.29 %ID/g | tissue uptake at 0.25 h (in vivo; heart): 3.55 ± 0.62 %ID/g | tissue uptake at 1 h (in vivo; heart): 0.61 ± 0.27 %ID/g | tissue uptake at 0.25 h (in vivo; kidneys): 20.5 ± 7.97 %ID/g | tissue uptake at 1 h (in vivo; kidneys): 2.94 ± 0.44 %ID/g | tissue uptake at 0.25 h (in vivo; large intestine): 3.98 ± 0.68 %ID/g | tissue uptake at 1 h (in vivo; large intestine): 0.67 ± 0.19 %ID/g | tissue uptake at 0.25 h (in vivo; liver): 7.35 ± 3.27 %ID/g | tissue uptake at 1 h (in vivo; liver): 0.82 ± 0.1 %ID/g | tissue uptake at 0.25 h (in vivo; lung): 7.48 ± 1.92 %ID/g | tissue uptake at 1 h (in vivo; lung): 1.57 ± 0.63 %ID/g | tissue uptake at 0.25 h (in vivo; muscle): 2.36 ± 0.33 %ID/g | tissue uptake at 1 h (in vivo; muscle): 0.41 ± 0.12 %ID/g | tissue uptake at 0.25 h (in vivo; pancreas): 32 ± 3.86 %ID/g | tissue uptake at 1 h (in vivo; pancreas): 14 ± 1.99 %ID/g | tissue uptake at 0.25 h (in vivo; prostate): 26.3 ± 18 %ID/g | tissue uptake at 1 h (in vivo; prostate): 3.48 ± 3.63 %ID/g | tissue uptake at 0.25 h (in vivo; salivary gland): 3.69 ± 1.39 %ID/g | tissue uptake at 1 h (in vivo; salivary gland): 0.6 ± 0.18 %ID/g | tissue uptake at 0.25 h (in vivo; small intestine): 2.74 ± 0.28 %ID/g | tissue uptake at 1 h (in vivo; small intestine): 0.99 ± 0.32 %ID/g | tissue uptake at 0.25 h (in vivo; spleen): 4.03 ± 2.21 %ID/g | tissue uptake at 1 h (in vivo; spleen): 1.08 ± 0.39 %ID/g | tissue uptake at 0.25 h (in vivo; stomach): 4.72 ± 0.38 %ID/g | tissue uptake at 1 h (in vivo; stomach): 1.95 ± 0.39 %ID/g | tissue uptake at 0.25 h (in vivo; thyroid): 6.57 ± 3.95 %ID/g | tissue uptake at 1 h (in vivo; thyroid): 0.99 ± 0.5 %ID/g | tissue uptake at 0.25 h (in vivo; tumour): 6.32 ± 1.28 %ID/g | tissue uptake at 1 h (in vivo; tumour): 2.26 ± 0.93 %ID/g | radiochemical purity after incubation in HS (human serum, 37 °C, 6 days, ITLC (citrate buffer pH 5.5, 0.1 M)): above 99% | stability of the preparation after radiolabelling (room temperature, HPLC): stable up to 24 hours
